Measurements: BindingDB's records for doi:10.1016/j.bmcl.2006.09.018 (Gsk, 2006)
pIC50: −log10 of the molar value.

How the values were obtained:
[1] = biological target: T1, Inhibitor of nuclear factor kappa-B kinase subunit beta (Homo sapiens, UniProt O14920); assay: IKK Kinase Inhibition Assay; conditions: pH 7.4; 22 °C
T1 sequence (O14920 whole entry): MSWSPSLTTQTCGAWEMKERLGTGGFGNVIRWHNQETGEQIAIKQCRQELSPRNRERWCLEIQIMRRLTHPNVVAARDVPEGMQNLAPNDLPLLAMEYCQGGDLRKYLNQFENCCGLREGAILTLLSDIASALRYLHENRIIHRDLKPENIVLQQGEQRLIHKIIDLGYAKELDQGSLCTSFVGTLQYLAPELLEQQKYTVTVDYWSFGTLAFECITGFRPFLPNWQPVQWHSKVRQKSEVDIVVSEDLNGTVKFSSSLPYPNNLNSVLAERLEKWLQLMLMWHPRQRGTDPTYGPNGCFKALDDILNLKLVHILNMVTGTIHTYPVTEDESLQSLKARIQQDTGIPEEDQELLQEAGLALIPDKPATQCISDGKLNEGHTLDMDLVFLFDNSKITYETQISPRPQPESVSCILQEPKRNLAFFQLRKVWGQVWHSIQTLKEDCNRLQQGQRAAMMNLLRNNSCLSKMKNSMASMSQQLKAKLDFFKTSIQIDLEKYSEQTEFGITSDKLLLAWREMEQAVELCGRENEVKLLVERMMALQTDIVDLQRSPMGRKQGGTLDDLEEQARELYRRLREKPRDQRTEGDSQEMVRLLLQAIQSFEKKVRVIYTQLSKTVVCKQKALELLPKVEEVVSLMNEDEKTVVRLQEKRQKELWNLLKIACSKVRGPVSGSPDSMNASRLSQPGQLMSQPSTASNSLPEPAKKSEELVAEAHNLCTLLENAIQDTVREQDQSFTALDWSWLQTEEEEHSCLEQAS
Method: (§1) IKK kinase activity was assessed using a time-resolved fluorescence resonance energy transfer (TR-FRET) assay. The reaction was initiated by the addition of GST-IKBalpha substrate/ATP to the reaction buffer containing IKK kinase and test compounds. After incubation, detection reagent containing antiphosphoserine IKBalpha monoclonal antibody labelled with europium chelate, and an APC-labelled anti-GST antibody was added.

[2] = biological target: Serine/threonine-protein kinase PLK1 (Homo sapiens, UniProt P53350); assay: Scintillation Proximity Assay (SPA); conditions: pH 7.2; 22 °C
Chain of Serine/threonine-protein kinase PLK1 (P53350 whole entry): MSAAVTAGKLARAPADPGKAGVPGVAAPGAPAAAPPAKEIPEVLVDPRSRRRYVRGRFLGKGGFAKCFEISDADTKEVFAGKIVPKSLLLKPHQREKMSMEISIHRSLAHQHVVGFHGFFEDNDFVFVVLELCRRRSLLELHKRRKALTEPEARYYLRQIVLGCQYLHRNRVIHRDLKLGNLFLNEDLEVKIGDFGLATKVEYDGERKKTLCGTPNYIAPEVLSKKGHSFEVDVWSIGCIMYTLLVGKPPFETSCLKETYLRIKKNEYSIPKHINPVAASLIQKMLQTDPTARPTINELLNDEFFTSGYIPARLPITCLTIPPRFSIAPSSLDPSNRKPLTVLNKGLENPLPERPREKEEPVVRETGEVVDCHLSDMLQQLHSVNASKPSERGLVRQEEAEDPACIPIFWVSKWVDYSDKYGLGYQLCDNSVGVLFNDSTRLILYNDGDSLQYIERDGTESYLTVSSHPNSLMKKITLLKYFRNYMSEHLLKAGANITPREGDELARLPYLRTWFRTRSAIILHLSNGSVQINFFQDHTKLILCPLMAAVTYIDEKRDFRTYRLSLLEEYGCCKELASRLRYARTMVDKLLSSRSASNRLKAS
Method: The compound inhibitory activity was determined by incubation with purified PLK1 and biotinylated peptide substrate in the presence ATP/[gamma-33P]ATP. After incubation, the phosphorylated substrate was separated from nonincorporated radioactive ATP using SPA beads. Incorporated radioactivity was measured using Packard TopCount.

[3] = biological target: T2, Inhibitor of nuclear factor kappa-B kinase subunit epsilon (Homo sapiens, UniProt Q14164); assay: IKK Kinase Inhibition Assay; conditions: pH 7.4; 22 °C
T2 sequence (Q14164 whole entry): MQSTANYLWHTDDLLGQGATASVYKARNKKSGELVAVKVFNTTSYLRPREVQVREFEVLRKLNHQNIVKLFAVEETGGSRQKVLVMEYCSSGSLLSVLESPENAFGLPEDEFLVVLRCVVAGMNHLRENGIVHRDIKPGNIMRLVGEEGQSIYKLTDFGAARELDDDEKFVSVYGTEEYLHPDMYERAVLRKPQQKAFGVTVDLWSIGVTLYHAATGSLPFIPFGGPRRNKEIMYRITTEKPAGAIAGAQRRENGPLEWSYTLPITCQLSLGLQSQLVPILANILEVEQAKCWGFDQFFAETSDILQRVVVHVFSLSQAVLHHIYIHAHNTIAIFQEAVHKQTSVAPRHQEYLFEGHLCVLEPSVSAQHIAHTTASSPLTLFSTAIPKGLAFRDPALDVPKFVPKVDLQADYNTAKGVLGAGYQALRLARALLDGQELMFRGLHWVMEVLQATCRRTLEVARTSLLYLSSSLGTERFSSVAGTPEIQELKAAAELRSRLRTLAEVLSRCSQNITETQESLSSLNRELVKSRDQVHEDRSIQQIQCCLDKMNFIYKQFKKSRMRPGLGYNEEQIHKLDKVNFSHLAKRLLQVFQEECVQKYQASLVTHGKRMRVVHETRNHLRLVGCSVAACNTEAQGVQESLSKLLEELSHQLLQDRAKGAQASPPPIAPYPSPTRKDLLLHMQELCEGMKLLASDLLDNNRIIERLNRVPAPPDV
Method: as §1

Row | Structure (SMILES) | pIC50 [1] | pIC50 [2] | pIC50 [3]
1 | COc1cc2ncn(-c3cc(OCC4CCCO4)c(C#N)s3)c2cc1OC (stereo not given) [5-(5,6-dimethoxy-1H-1,3-benzodiazol-1-yl)-3-(oxolan-2-ylmethoxy)thiophene-2-carbonitrile] | < 4.80 | < 5.00 | –
2 | COc1cc2ncn(-c3cc(OCC4CCCO4)c(C(N)=O)s3)c2cc1OC (stereo not given) [5-(5,6-dimethoxy-1H-1,3-benzodiazol-1-yl)-3-(oxolan-2-ylmethoxy)thiophene-2-carboxamide] | < 4.80 | – | < 4.80
3 | COc1cc2ncn(-c3cc(OCc4ccccc4S(C)(=O)=O)c(C#N)s3)c2cc1OC [5-(5,6-dimethoxy-1H-1,3-benzodiazol-1-yl)-3-[(2-methanesulfonylphenyl)methoxy]thiophene-2-carbonitrile] | < 4.80 | – | –
4 | COc1cc2ncn(-c3cc(OCc4ccc(S(C)(=O)=O)cc4)c(C#N)s3)c2cc1OC [5-(5,6-dimethoxy-1H-1,3-benzodiazol-1-yl)-3-[(4-methanesulfonylphenyl)methoxy]thiophene-2-carbonitrile] | < 4.80 | – | –
5 | Cc1ccc(COc2cc(-n3cnc4ccccc43)sc2C(N)=O)cc1 [BMCL191018 Compound 9] | – | 6.90 | 5.40
6 | COc1cc2ncn(-c3cc(OCc4ccc(S(C)(=O)=O)cc4)c(C(N)=O)s3)c2cc1OC [BMCL191018 Compound 39] | < 4.80 | – | < 4.80
